Results taken from patent US7598029B2, “Method for identifying HIV-1 protease inhibitors with reduced metabolic affects” (Bristol-Myers Squibb Company, priority 2006, dated 2009).
Each block holds one compound with its values, some of them ahead of it.

What was measured:
cathepsin E = biological target: T1, cathepsin E (Homo sapiens, UniProt P14091); experiment: Protease digestion of resistin by cathepsin E with HIV-1 protease inhibitors, SDS-PAGE; assay type: biochemical; conditions: for inhibition of cleavage of resistin by cathepsin E: 1 ug alkylated and reduced resistin, 0.1 ug cathepsin E
T1 construct: purchased R&D Systems Inc
T1 sequence (P14091 54-396): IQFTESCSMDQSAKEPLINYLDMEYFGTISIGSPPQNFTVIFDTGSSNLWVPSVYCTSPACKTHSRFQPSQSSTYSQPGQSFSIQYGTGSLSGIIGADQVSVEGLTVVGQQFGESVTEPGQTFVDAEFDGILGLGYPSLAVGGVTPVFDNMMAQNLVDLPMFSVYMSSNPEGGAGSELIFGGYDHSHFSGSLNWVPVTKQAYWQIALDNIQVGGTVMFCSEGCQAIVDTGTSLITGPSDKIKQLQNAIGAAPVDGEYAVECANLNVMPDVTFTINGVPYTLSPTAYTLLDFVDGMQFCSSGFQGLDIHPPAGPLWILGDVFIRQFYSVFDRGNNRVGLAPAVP
Procedure: (§1) Atazanavir was synthesized by and provided in pure form from the Chemistry Division of Bristol-Myers Squibb Co. All compounds were dissolved in 100% DMSO (Sigma). The final concentration of DMSO was 0.2% in experiments that included a protease inhibitor.
(§2) Recombinant Proteins: Recombinant human and mouse resistin were obtained from Santa Cruz Biotech. Recombinant cathepsin D and cathepsin E were obtained from R&D Systems Inc. Recombinant HIV-1 protease was obtained from Protein One. Recombinant renin was obtained from Cayman Chemical and recombinant trypsin was from Promega.
(§3) Alkylation/Reduction of Cysteine Residues: Lyophilized resistin (24 micrograms) was resuspended in 50 ul of fresh UA buffer (8 M urea, 0.4 M ammonium bicarbonate) and 5 ul of 45 mM DTT. The mixture was then incubated at 50° C. for 15 min, followed by addition of 5 ul of 0.1 M iodoacetamide. The reaction was then incubated for an additional 15 min in the dark at room temperature, followed by the addition of 140 ul of H20.
(§4) Preparation of Proteases: Lyophilized cathepsin D (10 ug) was resuspended in 100 ul H20. Cathepsin D was activated prior to use by incubating at 20 ng/ul in CathD buffer (100 mM NaOAc, 200 mM NaCl, pH 4.7) for 30 min at 37° C. Lyophilized cathepsin E (10 ug) was resuspended in 100 ul of reconstitution buffer (25 mM MES, 0.15 M NaCl, pH 6.5). Cathepsin E was activated prior to use by incubating at 20 ng/ul in CathE buffer (100 mM NaOAc, 100 mM NaCl, pH 4.7) for 30 min at room temperature. Renin was diluted to 20 ng/ul in renin buffer (50 mM Tris-HCl, pH 8, 100 mM NaCl) prior to use. Lyophilized trypsin (20 ug) was resuspended in 500 ul reconstitution buffer provided by the manufacturer (Promega). Trypsin was activated prior to use by incubating for 15 min at 30° C. HIV-1 protease was used directly from the manufacturer.
(§5) Protease Digestion Experiments: In all protease digestion reactions, 1 ug of alkylated and reduced resistin was incubated with either 1 ug HIV-1 protease, 0.1 ug cathepsin D, 0.1 ug cathepsin E or 0.1 ug trypsin. HIV-1 protease digestion was performed in HIV-1 PR buffer (50 mM MES (pH 6), 100 mM NaCl). Trypsin digestion was performed in TE buffer (10 mM Tris (pH 8), 0.1 mM EDTA (pH 8)). The respective reaction buffers for cathepsin D, cathepsin E and renin are listed above under “Preparation of proteases”. […] All protease digestion experiments were incubated for 24 hr at 37° C. with the exception of experiments containing cathepsin E, which were incubated at room temperature. Reactions were quenched in LDS loading dye (Invitrogen) containing reducing agent (Invitrogen). Reactions were subsequently heated at 70° C. for 5 min prior analysis by SDS-PAGE.
(§6) SDS-PAGE Analysis: Cleavage products were resolved using 4-12% Bis-Tris NUPAGE® Gels (Invitrogen). Gels were run at 200 V for 20 min in MES buffer. Protein bands were visualized by staining with Gel Code reagent (Pierce).

cathepsin D = biological target: T2, cathepsin D (Homo sapiens, UniProt P07339); experiment: Protease digestion of resistin by cathepsin D with HIV-1 protease inhibitors, SDS-PAGE; assay type: biochemical; conditions: for inhibition of cleavage of resistin by cathepsin D: 1 ug alkylated and reduced resistin, 0.1 ug cathepsin D
T2 construct: purchased R&D Systems Inc
T2 sequence (P07339 65-412): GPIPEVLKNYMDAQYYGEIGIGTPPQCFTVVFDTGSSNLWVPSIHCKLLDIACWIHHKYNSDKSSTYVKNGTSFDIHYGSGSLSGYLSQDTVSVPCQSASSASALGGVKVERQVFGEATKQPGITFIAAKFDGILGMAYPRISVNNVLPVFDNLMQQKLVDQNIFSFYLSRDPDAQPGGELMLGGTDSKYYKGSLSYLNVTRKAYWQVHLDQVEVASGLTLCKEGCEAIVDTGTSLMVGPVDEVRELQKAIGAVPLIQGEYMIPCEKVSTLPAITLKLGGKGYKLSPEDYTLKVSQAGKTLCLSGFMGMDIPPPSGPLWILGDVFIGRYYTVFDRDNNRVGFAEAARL
Procedure: as §1, §2, §3, §4, §5, §6

[1] = human, in vivo; cited from earlier work

SMILES: CC(C)c1nc(CN(C)C(=O)N[C@H](C(=O)N[C@@H](Cc2ccccc2)C[C@H](O)[C@H](Cc2ccccc2)NC(=O)OCc2cncs2)C(C)C)cs1 [ritonavir]
elevated plasma cholesterol and plasma triglyceride levels [1]: significantly more pronounced
frequency of hypertriglyceridaemia [1]: more frequent
hypercholesterolemia [1]: observed
hypertriglyceridaemia [1]: severe hypertriglyceridaemia
concentration at which cleavage of resistin by cathepsin E was detectably inhibited (cathepsin E; 24 hr at room temperature, FIG. 2): 10 µM
concentration at which cleavage of resistin by cathepsin E was detectably inhibited (cathepsin E; Example 1, FIG. 2, 24 hr at room temperature): 10 µM
concentration at which cathepsin E was fully inhibited (cathepsin E; Example 1, resistin cleavage): 30 µM
concentration at which cathepsin E was fully inhibited (cathepsin E; resistin cleavage, 24 hr at room temperature): 30 µM
concentration at which cleavage of resistin by cathepsin D was detectably inhibited (cathepsin D; 24 hr at 37° C., FIG. 2): 30 µM
concentration at which cleavage of resistin by cathepsin D was detectably inhibited (cathepsin D; Example 1, FIG. 2, 24 hr at 37° C.): 30 µM
concentration at which cathepsin D was fully inhibited (cathepsin D; Example 1, resistin cleavage): 100 µM
concentration at which cathepsin D was fully inhibited (cathepsin D; resistin cleavage, 24 hr at 37° C.): 100 µM

SMILES: CC(C)(C)NC(=O)[C@@H]1C[C@@H]2CCCC[C@@H]2CN1C[C@@H](O)[C@H](Cc1ccccc1)NC(=O)[C@H](CC(N)=O)NC(=O)c1ccc2ccccc2n1 [saquinavir]
association with HIV-1 protease inhibitor induced metabolic abnormalities [1]: known to be associated
inhibition of cleavage of resistin by cathepsin E (cathepsin E; 24 hr at room temperature): prevented
inhibition of cleavage of resistin by cathepsin D (cathepsin D; 24 hr at 37° C.): prevented

SMILES: Cc1cccc(C)c1OCC(=O)N[C@@H](Cc1ccccc1)[C@@H](O)C[C@H](Cc1ccccc1)NC(=O)[C@H](C(C)C)N1CCCNC1=O [lopinovir]
correlation of lipid abnormalities with plasma concentrations [1]: did not correlate

The next lines start with results.

inhibition of cleavage of resistin by cathepsin E (cathepsin E; 24 hr at room temperature): not
inhibition of cleavage of resistin by cathepsin D (cathepsin D; 24 hr at 37° C.): not
SMILES: CC(C)(C)NC(=O)[C@@H]1CN(Cc2cccnc2)CCN1C[C@@H](O)C[C@@H](Cc1ccccc1)C(=O)N[C@H]1c2ccccc2C[C@H]1O [indinavir]

inhibition of cleavage of resistin by cathepsin E (cathepsin E; 24 hr at room temperature): not detectably inhibited
inhibition of cleavage of resistin by cathepsin D (cathepsin D; 24 hr at 37° C.): not detectably inhibited
SMILES: COC(=O)N[C@H](C(=O)N[C@@H](Cc1ccccc1)[C@@H](O)CN(Cc1ccc(-c2ccccn2)cc1)NC(=O)[C@@H](NC(=O)OC)C(C)(C)C)C(C)(C)C [atazanavir]
change in fasting LDL cholesterol, total cholesterol, and fasting triglycerides [1]: either no change or decreases

inhibition of cleavage of resistin by cathepsin E (cathepsin E; 24 hr at room temperature): not
inhibition of cleavage of resistin by cathepsin D (cathepsin D; 24 hr at 37° C.): not
SMILES: Cc1c(O)cccc1C(=O)N[C@@H](CSc1ccccc1)[C@H](O)CN1C[C@H]2CCCC[C@H]2C[C@H]1C(=O)NC(C)(C)C [nelfinavir]
association with HIV-1 protease inhibitor induced metabolic abnormalities [1]: are not
